Laboratory results taken from patent US20240024273A1, “TOPICAL ADMINISTRATION OF 2-(DIETHYLAMINO)ETHYL 2-(4-ISOBUTYLPHENYL)PROPRIONATE FOR TREATMENT OF DISEASES” (TECHFIELDS PHARMA CO., LTD., priority 2020, published 2024).

System: Mild to Moderate Osteoarthritis of the Knee
Assay: Phase 2 study: WOMAC difficulty performing daily activities subscale score
Type: in vivo, human
Settings: for Change of WOMAC Difficulty performing daily activities score from baseline (±SEM) / Percentage of improvement from baseline, WOMAC Difficulty performing daily activities score: all patients taken as active
Description: This is a Phase 2, multicenter, randomized, double blind (within dose), placebo controlled, parallel group, proof of concept, and dose range finding study to evaluate the efficacy, safety, and PK of 2-(diethylamino)ethyl 2-(4-isobutylphenyl)propionate hydrochloride spray in adult subjects with clinically symptomatic mild to moderate OA of the knee. For subjects with bilateral knee pain, both knees will be treated, but the most symptomatic knee (i.e., the most painful knee as measured by the Western Ontario and McMaster University Osteoarthritis Index [WOMAC® 3.1] pain subscale score at Screening) will be designated as the target knee for efficacy analyses. For subjects with unilateral knee pain, only the symptomatic (target) knee will be treated.
After a Screening Period of up to 3 weeks and radiographic evaluation of the target knee joint space, a subject will be randomly assigned to 1 of 3 treatment groups in a 1:1:1 ratio with a 2:1 ratio of active:placebo within each treatment group (ie, 2 subjects to active treatment and 1 subject to placebo): • Group A: 8.75 mg 2-(diethylamino)ethyl 2-(4-isobutylphenyl)propionate/knee (2 sprays/knee, one spray to the medial surface and one spray to the lateral surface of the knee), twice daily (BID, approximately every 12 hours; n=50) or placebo (2 sprays/knee), BID (approximately every 12 hours; n=25) for a total of 4 sprays per knee per day; • Group B: 17.5 mg 2-(diethylamino)ethyl 2-(4-isobutylphenyl)propionate/knee (4 sprays/knee, one spray to the medial surface and one spray to the lateral surface of the knee, and one spray to front and one spray to the back of the knee), BID (approximately every 12 hours; n=50) or placebo (4 sprays/knee), BID (approximately every 12 hours; n=25) for a total of 8 sprays per knee per day; • Group C: 35 mg 2-(diethylamino)ethyl 2-(4-isobutylphenyl)propionate/knee (8 sprays/knee, each spray is to be applied to a different non-overlapping area around the knee, and the areas are to be uniformly distributed around the knee), BID (approximately every 12 hours; n=50) or placebo (8 sprays/knee), BID (approximately every 12 hours; n=25) for a total of 16 sprays per knee per day.
The VAS version of the WOMAC will be used for the Primary and Secondary Efficacy Endpoints. Efficacy endpoints will be assessed at Screening and Baseline (Day 1) and at the Week 2, Week 4, Week 8, and Week 12/EOS visits.
3.9.2. Secondary Efficacy Endpoints: • 1. Change from Baseline in the WOMAC (VAS) pain subscale score for the target knee at 2, 4, and 8 weeks of treatment; • 2. Change from Baseline in the WOMAC (VAS) stiffness subscale scores for the target knee and WOMAC (VAS) functional ability subscale scores at 2, 4, 8, and 12 weeks of treatment; • 3. Change from Baseline in the overall WOMAC (VAS) score at 2, 4, 8, and 12 weeks of treatment.
The Secondary Efficacy Endpoints, change from Baseline in the WOMAC subscale scores for pain, stiffness, and functional ability, and overall WOMAC score at 2, 4, 8, and 12 weeks of treatment, will be analyzed using the same methods as for the Primary Efficacy Endpoint.
To determine this, we assumed that all patients received 2-(diethylamino)ethyl 2-(4-isobutylphenyl)propionate, active drug treatment (i.e. all patients who received 2-(diethylamino)ethyl 2-(4-isobutylphenyl)propionate or placebo treatment for 12 weeks or mixed up treatment during the 12-week treatment, as 2-(diethylamino)ethyl 2-(4-isobutylphenyl)propionate-treated). Based on this assumption, that is, to treat this trial as an open-label study and that all patients received active treatment, we conducted efficacy analysis using top-line efficacy datasets prepared by CRO and the re-analysis results are presented in the following tables (Tables 29-47). […] (William G. Bensen, Justus J. Fiechtner, James 1. McMillen, et. al. Treatment of Osteoarthritis with Celecoxib. Mayo Clin Proc, November 1999. Vol 74, 1095-1105.)

[1] = 8.75 mg/knee (BID), Follow up (week 13, day 91)
[2] = 8.75 mg/knee (BID), Week 2 (day 14)
[3] = 8.75 mg/knee (BID), Week 4 (day 28)
[4] = 8.75 mg/knee (BID), Week 8 (day 56)
[5] = 8.75 mg/knee (BID), Week 12 (day 84)
[6] = 17.5 mg/knee (BID), Follow up (week 13, day 91)
[7] = 17.5 mg/knee (BID), Week 2 (day 14)
[8] = 17.5 mg/knee (BID), Week 4 (day 28)
[9] = 17.5 mg/knee (BID), Week 8 (day 56)
[10] = 17.5 mg/knee (BID), Week 12 (day 84)
[11] = 35 mg/knee (BID), Follow up (week 13, day 91)
[12] = 35 mg/knee (BID), Week 2 (day 14)
[13] = 35 mg/knee (BID), Week 4 (day 28)

CCN(CC)CCOC(=O)C(C)c1ccc(CC(C)C)cc1 (stereo not shown) [2-(diethylamino)ethyl 2-(4-isobutylphenyl)propionate]
Change of WOMAC Difficulty performing daily activities score from baseline (±SEM), adjusted by […] of the Testing Drug Amount [1]: −34.6(±5.8) mm | Percentage of improvement from baseline, WOMAC Difficulty performing daily activities score, adjusted by […] of the Testing Drug Amount [1]: −57.6% | Change of WOMAC Difficulty performing daily activities score from baseline (±SEM) [1]: −20.3(±3.4) mm | Percentage of improvement from baseline, WOMAC Difficulty performing daily activities score [1]: −33.6% | Change of WOMAC Difficulty performing daily activities score from baseline (±SEM), adjusted by […] of the Testing Drug Amount [2]: −18.2(±4.4) mm | Percentage of improvement from baseline, WOMAC Difficulty performing daily activities score, adjusted by […] of the Testing Drug Amount [2]: −30.0% | Change of WOMAC Difficulty performing daily activities score from baseline (±SEM) [2]: −10.6(±2.6) mm | Percentage of improvement from baseline, WOMAC Difficulty performing daily activities score [2]: −17.5% | Change of WOMAC Difficulty performing daily activities score from baseline (±SEM), adjusted by […] of the Testing Drug Amount [3]: −28.1(±5.1) mm | Percentage of improvement from baseline, WOMAC Difficulty performing daily activities score, adjusted by […] of the Testing Drug Amount [3]: −46.7% | Change of WOMAC Difficulty performing daily activities score from baseline (±SEM) [3]: −16.4(±3.0) mm | Percentage of improvement from baseline, WOMAC Difficulty performing daily activities score [3]: −27.2% | Change of WOMAC Difficulty performing daily activities score from baseline (±SEM), adjusted by […] of the Testing Drug Amount [4]: −33.1(±5.3) mm | Percentage of improvement from baseline, WOMAC Difficulty performing daily activities score, adjusted by […] of the Testing Drug Amount [4]: −54.9% | Change of WOMAC Difficulty performing daily activities score from baseline (±SEM) [4]: −19.3(±3.1) mm | Percentage of improvement from baseline, WOMAC Difficulty performing daily activities score [4]: −32.0% | Change of WOMAC Difficulty performing daily activities score from baseline (±SEM), adjusted by […] of the Testing Drug Amount [5]: −35.3(±5.8) mm | Percentage of improvement from baseline, WOMAC Difficulty performing daily activities score, adjusted by […] of the Testing Drug Amount [5]: −58.5% | Change of WOMAC Difficulty performing daily activities score from baseline (±SEM) [5]: −20.6(±3.4) mm | Percentage of improvement from baseline, WOMAC Difficulty performing daily activities score [5]: −34.1% | Change of WOMAC Difficulty performing daily activities score from baseline (±SEM), adjusted by […] of the Testing Drug Amount [6]: −39.6(±5.5) mm | Percentage of improvement from baseline, WOMAC Difficulty performing daily activities score, adjusted by […] of the Testing Drug Amount [6]: −62.4% | Change of WOMAC Difficulty performing daily activities score from baseline (±SEM) [6]: −23.1(±3.2) mm | Percentage of improvement from baseline, WOMAC Difficulty performing daily activities score [6]: −36.4% | Change of WOMAC Difficulty performing daily activities score from baseline (±SEM), adjusted by […] of the Testing Drug Amount [7]: −26.2(±4.1) mm | Percentage of improvement from baseline, WOMAC Difficulty performing daily activities score, adjusted by […] of the Testing Drug Amount [7]: −41.3% | Change of WOMAC Difficulty performing daily activities score from baseline (±SEM) [7]: −15.3(±2.4) mm | Percentage of improvement from baseline, WOMAC Difficulty performing daily activities score [7]: −24.1% | Change of WOMAC Difficulty performing daily activities score from baseline (±SEM), adjusted by […] of the Testing Drug Amount [8]: −36.2(±4.8) mm | Percentage of improvement from baseline, WOMAC Difficulty performing daily activities score, adjusted by […] of the Testing Drug Amount [8]: −57.1% | Percentage of improvement from baseline, WOMAC Difficulty performing daily activities score [8]: −33.3% | Change of WOMAC Difficulty performing daily activities score from baseline (±SEM), adjusted by […] of the Testing Drug Amount [9]: −41.3(±5.1) mm | Percentage of improvement from baseline, WOMAC Difficulty performing daily activities score, adjusted by […] of the Testing Drug Amount [9]: −65.2% | Change of WOMAC Difficulty performing daily activities score from baseline (±SEM) [9]: −24.1(±3.0) mm | Percentage of improvement from baseline, WOMAC Difficulty performing daily activities score [9]: −38.0% | Change of WOMAC Difficulty performing daily activities score from baseline (±SEM), adjusted by […] of the Testing Drug Amount [10]: −46.1(±5.5) mm | Percentage of improvement from baseline, WOMAC Difficulty performing daily activities score, adjusted by […] of the Testing Drug Amount [10]: −72.7% | Change of WOMAC Difficulty performing daily activities score from baseline (±SEM) [10]: −26.9(±3.2) mm | Percentage of improvement from baseline, WOMAC Difficulty performing daily activities score [10]: −42.4% | Change of WOMAC Difficulty performing daily activities score from baseline (±SEM), adjusted by […] of the Testing Drug Amount [11]: −35.0(±4.5) mm | Percentage of improvement from baseline, WOMAC Difficulty performing daily activities score, adjusted by […] of the Testing Drug Amount [11]: −60.9% | Change of WOMAC Difficulty performing daily activities score from baseline (±SEM) [11]: −20.4(±2.6) mm | Percentage of improvement from baseline, WOMAC Difficulty performing daily activities score [11]: −35.5% | Change of WOMAC Difficulty performing daily activities score from baseline (±SEM), adjusted by […] of the Testing Drug Amount [12]: −16.1(±3.3) mm | Percentage of improvement from baseline, WOMAC Difficulty performing daily activities score, adjusted by […] of the Testing Drug Amount [12]: −28.1% | Change of WOMAC Difficulty performing daily activities score from baseline (±SEM) [12]: −9.4(±1.9) mm | Percentage of improvement from baseline, WOMAC Difficulty performing daily activities score [12]: −16.4% | Change of WOMAC Difficulty performing daily activities score from baseline (±SEM), adjusted by […] of the Testing Drug Amount [13]: −23.0(±3.9) mm | Percentage of improvement from baseline, WOMAC Difficulty performing daily activities score, adjusted by […] of the Testing Drug Amount [13]: −40.0% | Change of WOMAC Difficulty performing daily activities score from baseline (±SEM) [13]: −13.4(±2.3) mm | Percentage of improvement from baseline, WOMAC Difficulty performing daily activities score [13]: −23.3% | Change of WOMAC Difficulty performing daily activities score from baseline (±SEM), adjusted by […] of the Testing Drug Amount (35 mg/knee (BID), Week 8 (day 56)): −31.6(±4.5) mm
